{"source": "the supplement of paper PMC10307832", "assay_in_all_cases": "relative viability (nuclei count vs DMSO), 5 days (fraction); higher = more cells survive", "key": {"[1]": {"tested_on": "NCI-H2126", "how_it_was_run": "(§1)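 Nuclei were stained with Hoechst during a one-step fixation (final 0.05% Triton X-100, 1% formaldehyde, 1 ug/ml Hoechst) carried out 5 days after dosing, then counted on 4× images. The cells, lung cancer lines in 1536-well plates, had been dosed by pin tool the day after seeding with one drug alone or a fixed anchor-drug dose plus five library-drug doses (not always all listed) in √10 steps. Relative viability is the nuclei count in treated wells divided by that in vehicle wells, and each value is the median of duplicate plates.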"}, "[2]": {"tested_on": "NCI-H1666", "how_it_was_run": "as §1"}, "[3]": {"tested_on": "LCLC-103H", "how_it_was_run": "as §1"}, "[4]": {"tested_on": "NCI-H2405", "how_it_was_run": "as §1"}, "[5]": {"tested_on": "NCI-H2342", "how_it_was_run": "as §1"}, "[6]": {"tested_on": "NCI-H322M", "how_it_was_run": "as §1"}, "[7]": {"tested_on": "SW 1573", "how_it_was_run": "as §1"}, "[8]": {"tested_on": "EMC-BAC-2", "how_it_was_run": "as §1"}, "[9]": {"tested_on": "SW 900", "how_it_was_run": "as §1"}, "[10]": {"tested_on": "HCC-827", "how_it_was_run": "as §1"}, "[11]": {"tested_on": "EPLC-272H", "how_it_was_run": "as §1"}, "[12]": {"tested_on": "LK-2", "how_it_was_run": "as §1"}, "[13]": {"tested_on": "PC-14", "how_it_was_run": "as §1"}, "[14]": {"tested_on": "NCI-H23", "how_it_was_run": "as §1"}, "[15]": {"tested_on": "ChaGo-K-1", "how_it_was_run": "as §1"}, "[16]": {"tested_on": "SK-LU-1", "how_it_was_run": "as §1"}, "[17]": {"tested_on": "RERF-LC-KJ", "how_it_was_run": "as §1"}, "[18]": {"tested_on": "NCI-H1975", "how_it_was_run": "as §1"}, "[19]": {"tested_on": "EKVX", "how_it_was_run": "as §1"}, "[20]": {"tested_on": "LU99A", "how_it_was_run": "as §1"}, "[21]": {"tested_on": "HCC-78", "how_it_was_run": "as §1"}}, "data": [{"smiles": "Nc1ccn([C@@H]2O[C@H](CO)[C@@H](O)[C@@H]2O)c(=O)n1", "note": "[Cytarabine] + O=C(CCCCCCC(=O)Nc1ccccc1)NO [Vorinostat] (partner 1 µM)", "values": [{"measurement": "relative viability", "setting": "[1]; first compound 0.005 µM", "result": 0.649}, {"measurement": "relative viability", "setting": "[1]; first compound 0.01581 µM", "result": 0.681}, {"measurement": "relative viability", "setting": "[1]; first compound 0.05 µM", "result": 0.448}, {"measurement": "relative viability", "setting": "[1]; first compound 0.1581 µM", "result": 0.593}, {"measurement": "relative viability", "setting": "[1]; first compound 0.5 µM", "result": 0.44}, {"measurement": "relative viability", "setting": "[2]; first compound 0.005 µM", "result": 0.948}, {"measurement": "relative viability", "setting": "[2]; first compound 0.01581 µM", "result": 0.843}, {"measurement": "relative viability", "setting": "[2]; first compound 0.05 µM", "result": 0.768}, {"measurement": "relative viability", "setting": "[2]; first compound 0.1581 µM", "result": 0.733}, {"measurement": "relative viability", "setting": "[2]; first compound 0.5 µM", "result": 0.619}, {"measurement": "relative viability", "setting": "[3]; first compound 0.005 µM", "result": 0.806}, {"measurement": "relative viability", "setting": "[3]; first compound 0.01581 µM", "result": 0.861}, {"measurement": "relative viability", "setting": "[3]; first compound 0.05 µM", "result": 0.758}, {"measurement": "relative viability", "setting": "[3]; first compound 0.1581 µM", "result": 0.745}, {"measurement": "relative viability", "setting": "[3]; first compound 0.5 µM", "result": 0.692}, {"measurement": "relative viability", "setting": "[4]; first compound 0.005 µM", "result": 1.02}, {"measurement": "relative viability", "setting": "[4]; first compound 0.01581 µM", "result": 0.748}, {"measurement": "relative viability", "setting": "[4]; first compound 0.05 µM", "result": 0.624}, {"measurement": "relative viability", "setting": "[4]; first compound 0.1581 µM", "result": 0.43}, {"measurement": "relative viability", "setting": "[4]; first compound 0.5 µM", "result": 0.374}, {"measurement": "relative viability", "setting": "[5]; first compound 0.005 µM", "result": 0.718}, {"measurement": "relative viability", "setting": "[5]; first compound 0.01581 µM", "result": 0.698}, {"measurement": "relative viability", "setting": "[5]; first compound 0.05 µM", "result": 0.657}, {"measurement": "relative viability", "setting": "[5]; first compound 0.1581 µM", "result": 0.52}, {"measurement": "relative viability", "setting": "[5]; first compound 0.5 µM", "result": 0.465}, {"measurement": "relative viability", "setting": "[6]; first compound 0.005 µM", "result": 0.804}, {"measurement": "relative viability", "setting": "[6]; first compound 0.01581 µM", "result": 0.785}, {"measurement": "relative viability", "setting": "[6]; first compound 0.05 µM", "result": 0.641}, {"measurement": "relative viability", "setting": "[6]; first compound 0.1581 µM", "result": 0.589}, {"measurement": "relative viability", "setting": "[6]; first compound 0.5 µM", "result": 0.426}, {"measurement": "relative viability", "setting": "[7]; first compound 0.005 µM", "result": 0.606}, {"measurement": "relative viability", "setting": "[7]; first compound 0.01581 µM", "result": 0.552}, {"measurement": "relative viability", "setting": "[7]; first compound 0.05 µM", "result": 0.677}, {"measurement": "relative viability", "setting": "[7]; first compound 0.1581 µM", "result": 0.225}, {"measurement": "relative viability", "setting": "[7]; first compound 0.5 µM", "result": 0.15}, {"measurement": "relative viability", "setting": "[8]; first compound 0.005 µM", "result": 0.494}, {"measurement": "relative viability", "setting": "[8]; first compound 0.01581 µM", "result": 0.448}, {"measurement": "relative viability", "setting": "[8]; first compound 0.05 µM", "result": 0.165}, {"measurement": "relative viability", "setting": "[8]; first compound 0.1581 µM", "result": 0.29}, {"measurement": "relative viability", "setting": "[8]; first compound 0.5 µM", "result": 0.182}, {"measurement": "relative viability", "setting": "[9]; first compound 0.005 µM", "result": 0.399}, {"measurement": "relative viability", "setting": "[9]; first compound 0.01581 µM", "result": 0.491}, {"measurement": "relative viability", "setting": "[9]; first compound 0.05 µM", "result": 0.376}, {"measurement": "relative viability", "setting": "[9]; first compound 0.1581 µM", "result": 0.182}, {"measurement": "relative viability", "setting": "[9]; first compound 0.5 µM", "result": 0.166}, {"measurement": "relative viability", "setting": "[10]; first compound 0.005 µM", "result": 0.539}, {"measurement": "relative viability", "setting": "[10]; first compound 0.01581 µM", "result": 0.331}, {"measurement": "relative viability", "setting": "[10]; first compound 0.05 µM", "result": 0.169}, {"measurement": "relative viability", "setting": "[10]; first compound 0.1581 µM", "result": 0.145}, {"measurement": "relative viability", "setting": "[10]; first compound 0.5 µM", "result": 0.141}, {"measurement": "relative viability", "setting": "[11]; first compound 0.005 µM", "result": 0.461}, {"measurement": "relative viability", "setting": "[11]; first compound 0.01581 µM", "result": 0.393}, {"measurement": "relative viability", "setting": "[11]; first compound 0.05 µM", "result": 0.398}, {"measurement": "relative viability", "setting": "[11]; first compound 0.1581 µM", "result": 0.174}, {"measurement": "relative viability", "setting": "[11]; first compound 0.5 µM", "result": 0.155}, {"measurement": "relative viability", "setting": "[12]; first compound 0.005 µM", "result": 0.244}, {"measurement": "relative viability", "setting": "[12]; first compound 0.01581 µM", "result": 0.29}, {"measurement": "relative viability", "setting": "[12]; first compound 0.05 µM", "result": 0.242}, {"measurement": "relative viability", "setting": "[12]; first compound 0.1581 µM", "result": 0.143}, {"measurement": "relative viability", "setting": "[12]; first compound 0.5 µM", "result": 0.119}, {"measurement": "relative viability", "setting": "[13]; first compound 0.005 µM", "result": 0.519}, {"measurement": "relative viability", "setting": "[13]; first compound 0.01581 µM", "result": 0.601}, {"measurement": "relative viability", "setting": "[13]; first compound 0.05 µM", "result": 0.617}, {"measurement": "relative viability", "setting": "[13]; first compound 0.1581 µM", "result": 0.154}, {"measurement": "relative viability", "setting": "[13]; first compound 0.5 µM", "result": 0.082}, {"measurement": "relative viability", "setting": "[14]; first compound 0.005 µM", "result": 0.65}, {"measurement": "relative viability", "setting": "[14]; first compound 0.01581 µM", "result": 0.511}, {"measurement": "relative viability", "setting": "[14]; first compound 0.05 µM", "result": 0.306}, {"measurement": "relative viability", "setting": "[14]; first compound 0.1581 µM", "result": 0.156}, {"measurement": "relative viability", "setting": "[14]; first compound 0.5 µM", "result": 0.122}, {"measurement": "relative viability", "setting": "[15]; first compound 0.005 µM", "result": 0.673}, {"measurement": "relative viability", "setting": "[15]; first compound 0.01581 µM", "result": 0.649}, {"measurement": "relative viability", "setting": "[15]; first compound 0.05 µM", "result": 0.471}, {"measurement": "relative viability", "setting": "[15]; first compound 0.1581 µM", "result": 0.408}, {"measurement": "relative viability", "setting": "[15]; first compound 0.5 µM", "result": 0.288}, {"measurement": "relative viability", "setting": "[16]; first compound 0.005 µM", "result": 0.509}, {"measurement": "relative viability", "setting": "[16]; first compound 0.01581 µM", "result": 0.665}, {"measurement": "relative viability", "setting": "[16]; first compound 0.05 µM", "result": 0.632}, {"measurement": "relative viability", "setting": "[16]; first compound 0.1581 µM", "result": 0.479}, {"measurement": "relative viability", "setting": "[16]; first compound 0.5 µM", "result": 0.422}, {"measurement": "relative viability", "setting": "[17]; first compound 0.005 µM", "result": 0.569}, {"measurement": "relative viability", "setting": "[17]; first compound 0.01581 µM", "result": 0.66}, {"measurement": "relative viability", "setting": "[17]; first compound 0.05 µM", "result": 0.513}, {"measurement": "relative viability", "setting": "[17]; first compound 0.1581 µM", "result": 0.474}, {"measurement": "relative viability", "setting": "[17]; first compound 0.5 µM", "result": 0.393}, {"measurement": "relative viability", "setting": "[18]; first compound 0.005 µM", "result": 0.572}, {"measurement": "relative viability", "setting": "[18]; first compound 0.01581 µM", "result": 0.675}, {"measurement": "relative viability", "setting": "[18]; first compound 0.05 µM", "result": 0.568}, {"measurement": "relative viability", "setting": "[18]; first compound 0.1581 µM", "result": 0.429}, {"measurement": "relative viability", "setting": "[18]; first compound 0.5 µM", "result": 0.287}, {"measurement": "relative viability", "setting": "[19]; first compound 0.005 µM", "result": 0.706}, {"measurement": "relative viability", "setting": "[19]; first compound 0.01581 µM", "result": 0.7}, {"measurement": "relative viability", "setting": "[19]; first compound 0.05 µM", "result": 0.636}, {"measurement": "relative viability", "setting": "[19]; first compound 0.1581 µM", "result": 0.494}, {"measurement": "relative viability", "setting": "[19]; first compound 0.5 µM", "result": 0.414}, {"measurement": "relative viability", "setting": "[20]; first compound 0.005 µM", "result": 0.451}, {"measurement": "relative viability", "setting": "[20]; first compound 0.01581 µM", "result": 0.468}, {"measurement": "relative viability", "setting": "[20]; first compound 0.05 µM", "result": 0.554}, {"measurement": "relative viability", "setting": "[20]; first compound 0.1581 µM", "result": 0.455}, {"measurement": "relative viability", "setting": "[20]; first compound 0.5 µM", "result": 0.375}, {"measurement": "relative viability", "setting": "[21]; first compound 0.005 µM", "result": 0.498}, {"measurement": "relative viability", "setting": "[21]; first compound 0.01581 µM", "result": 0.471}, {"measurement": "relative viability", "setting": "[21]; first compound 0.05 µM", "result": 0.402}, {"measurement": "relative viability", "setting": "[21]; first compound 0.1581 µM", "result": 0.348}, {"measurement": "relative viability", "setting": "[21]; first compound 0.5 µM", "result": 0.263}]}]}
